Molecules are shown by their SMILES.

Bcl-xL (GST-Bcl-xL), sequence (Q07817 whole entry, species assumed): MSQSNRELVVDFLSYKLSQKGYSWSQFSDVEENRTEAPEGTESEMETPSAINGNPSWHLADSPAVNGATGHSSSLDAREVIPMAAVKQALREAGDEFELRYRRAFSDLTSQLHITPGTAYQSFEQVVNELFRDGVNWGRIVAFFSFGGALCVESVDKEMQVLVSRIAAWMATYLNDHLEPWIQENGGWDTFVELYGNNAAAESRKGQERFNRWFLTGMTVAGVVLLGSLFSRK

In the first test the target is Bcl-xL (GST-Bcl-xL) (Homo sapiens, UniProt Q07817). Description: TR-FRET binding assay, competition with F-Bak for the Bcl-xL binding site. The following applies: values listed in the order of Table 1, read-out: TR-FRET assay results (Ki), Bcl-xL. As to the method: The measurement of competition of compounds of the invention with F-Bak for a Bcl-2 family protein (Bcl-xL) binding site using a Time Resolved Fluorescence Resonance Energy Transfer (TR-FRET) binding assay:
Test compounds were serially diluted in DMSO starting at 50 μM (2× starting concentration; 10% DMSO) and 10 μt transferred into a 384-well plate.
The samples are then mixed on a shaker for 1 minute then incubated for an additional 2 hours at room temperature. For each assay plate, a probe/antibody and protein/antibody/probe mixture were included as a negative and a positive control, respectively. Fluorescence was measured on the Envision (Perkin Elmer) using a 340/35 nm excitation filter and 520/525 (F-Bak) and 495/510 nm (Tb-labeled anti-his antibody) emission filters. Dissociation constants (Ki) were determined using Wang's equation (see, Wang, Z. X. An exact mathematical expression for describing competitive binding of two different ligands to a protein molecule. FEBS Lett. 1995 360:111-114). The TR-FRET assay can be performed in the presence of varying concentrations of human serum (HS) or fetal bovine serum (FBS).
Turning to `O=C(Nc1nc2ccccc2s1)c1cccc2c1CN(c1ccc(CCCCOc3ccccc3)c(C(=O)O)n1)CC2` [Compound 131, 6-(8-(benzo[d]thiazol-2-ylcarbamoyl)-3,4-dihydroisoquinolin-2(1H)-yl)-3-(4-phenoxybutyl)picolinic acid], the Ki was determined as 18.9 nM. For the compound `O=C(Nc1nc2ccccc2s1)c1cccc2c1CN(c1nc(C(=O)O)c(CCOCc3ccccc3)s1)CC2` [Compound 134, 2-(8-(benzo[d]thiazol-2-ylcarbamoyl)-3,4-dihydroisoquinolin-2(1H)-yl)-5-(2-(benzyloxy)ethyl)thiazole-4-carboxylic acid], the inhibition constant Ki was found to be 0.6 nM. Regarding `CN(C)CC#Cc1ccc(OCCCc2sc(N3CCc4cccc(C(=O)Nc5nc6ccccc6s5)c4C3)nc2C(=O)NS(C)(=O)=O)c(F)c1` [Compound 142, 2-(8-(benzo[d]thiazol-2-ylcarbamoyl)-3,4-dihydroisoquinolin-2(1H)-yl)-5-(3-(4-(3-(dimethylamino)prop-1-ynyl)-2-fluorophenoxy)propyl)-N-(methylsulfonyl) thiazole-4-carboxamide], the Ki is 0.088 nM. With `CN(C)CC#Cc1ccc(OCCCc2sc(N3CCc4cccc(C(=O)Nc5nc6ccccc6s5)c4C3)nc2C(=O)NS(=O)(=O)C(F)F)c(F)c1` [Compound 147, 2-(8-(benzo[d]thiazol-2-ylcarbamoyl)-3,4-dihydroisoquinolin-2(1H)-yl)-N-(difluoromethylsulfonyl)-5-(3-(4-(3-(dimethylamino)prop-1-ynyl)-2-fluorophenoxy)propyl)thiazole-4-carboxamide], the Ki is more than 660 nM. Regarding `O=C(Nc1nc2ccccc2s1)c1cccc2c1CN(c1nc(C(=O)O)c(CCCN3CCOCC3)s1)CC2` [Example 19, 2-(8-(benzo[d]thiazol-2-ylcarbamoyl)-3,4-dihydroisoquinolin-2(1H)-yl)-5-(3-morpholinopropyl)thiazole-4-carboxylic acid], the Ki amounted to 9 nM. In the case of `O=C(Nc1nc2ccccc2s1)c1cccc2c1CN(c1nc(C(=O)O)c(CCCOc3cccc(-n4ncc5cncnc54)c3)s1)CC2` [Example 33], the Ki stood at 0.3 nM. Take `N#Cc1c(-c2cccc(OCC#Cc3sc(N4CCc5cccc(C(=O)Nc6nc7ccccc7s6)c5C4)nc3C(=O)O)c2)n[nH]c1N` [Example 36, 5-(3-(3-(5-amino-4-cyano-1H-pyrazol-3-yl)phenoxy)prop-1-ynyl)-2-(8-(benzo[d]thiazol-2-ylcarbamoyl)-3,4-dihydroisoquinolin-2(1H)-yl)thiazole-4-carboxylic acid]: the Ki worked out at 5 nM. For `N#Cc1c(-c2cccc(OCc3ccc(-c4sc(N5CCc6cccc(C(=O)Nc7nc8ccccc8s7)c6C5)nc4C(=O)O)cc3)c2)n[nH]c1N` [Example 37, 5-(4-((3-(5-amino-4-cyano-1H-pyrazol-3-yl)phenoxy)methyl)phenyl)-2-(8-(benzo[d]thiazol-2-ylcarbamoyl)-3,4-dihydroisoquinolin-2(1H)-yl)thiazole-4-carboxylic acid], the inhibition constant Ki was 4 nM. For `N#Cc1c(-c2cccc(OCCCc3sc(N4CCc5cccc(C(=O)Nc6nc7ccccc7s6)c5C4)nc3C(=O)O)c2)n[nH]c1N` [Example 39, 5-(3-(3-(5-amino-4-cyano-1H-pyrazol-3-yl)phenoxy)propyl)-2-(8-(benzo[d]thiazol-2-ylcarbamoyl)-3,4-dihydroisoquinolin-2(1H)-yl)thiazole-4-carboxylic acid], the Ki is 0.2 nM.

For the compound `N#Cc1c(-c2ccc(OCC#Cc3sc(N4CCc5cccc(C(=O)Nc6nc7ccccc7s6)c5C4)nc3C(=O)O)cc2)n[nH]c1N` [Example 40, 5-(3-(4-(5-amino-4-cyano-1H-pyrazol-3-yl)phenoxy)prop-1-ynyl)-2-(8-(benzo[d]thiazol-2-ylcarbamoyl)-3,4-dihydroisoquinolin-2(1H)-yl)thiazole-4-carboxylic acid], the Ki turned out to be 0.4 nM.

`O=C(Nc1nc2ccccc2s1)c1cccc2c1CN(c1nc(C(=O)O)c(CCCCOc3ccc(-n4ncc5cncnc54)cc3)s1)CC2` [Example 43, 5-(4-(4-(1H-pyrazolo[3,4-d]pyrimidin-1-yl)phenoxy)butyl)-2-(8-(benzo[d]thiazol-2-ylcarbamoyl)-3,4-dihydroisoquinolin-2(1H)-yl)thiazole-4-carboxylic acid]: the Ki came to 5 nM.

As to `CC(C)Nc1ncnc2c1cnn2-c1ccc(OCCCc2sc(N3CCc4cccc(C(=O)Nc5nc6ccccc6s5)c4C3)nc2C(=O)O)cc1` [Example 44, 2-(8-(benzo[d]thiazol-2-ylcarbamoyl)-3,4-dihydroisoquinolin-2(1H)-yl)-5-(3-(4-(4-(isopropylamino)-1H-pyrazolo[3,4-d]pyrimidin-1-yl)phenoxy)propyl)thiazole-4-carboxylic acid], the Ki turned out to be 0.07 nM. For `N#Cc1c(-c2cccc(OCc3sc(N4CCc5cccc(C(=O)Nc6nc7ccccc7s6)c5C4)nc3C(=O)O)c2)n[nH]c1N` [Example 46, 5-[3-(5-Amino-4-cyano-1H-pyrazol-3-yl)-phenoxymethyl]-2-[8-(benzothiazol-2-ylcarbamoyl)-3,4-dihydro-1H-isoquinolin-2-yl]-thiazole-4-carboxylic acid], the Ki is 1 nM.

Turning to `N#Cc1c(-c2ccc(OCCCc3sc(N4CCc5cccc(C(=O)Nc6nc7ccccc7s6)c5C4)nc3C(=O)O)cc2)csc1N` [Example 47, 5-{3-[4-(5-Amino-4-cyano-thiophen-3-yl)-phenoxy]-propyl}-2-[8-(benzothiazol-2-ylcarbamoyl)-3,4-dihydro-1H-isoquinolin-2-yl]-thiazole-4-carboxylic acid], the Ki was 0.1 nM. With `O=C(Nc1nc2ccccc2s1)c1cccc2c1CN(c1nc(C(=O)O)c(CCCOc3ccc(C4=CSC5=NCCN45)cc3)s1)CC2` [Example 53, 2-(8-(benzo[d]thiazol-2-ylcarbamoyl)-3,4-dihydroisoquinolin-2(1H)-yl)-5-(3-(4-(5,6-dihydroimidazo[2,1-b]thiazol-3-yl)phenoxy)propyl)thiazole-4-carboxylic acid], the Ki came out at 0.05 nM.

With `N#Cc1cccnc1-c1ccc(OCCCc2sc(N3CCc4cccc(C(=O)Nc5nc6ccccc6s5)c4C3)nc2C(=O)O)cc1` [Example 56, 2-[8-(Benzothiazol-2-ylcarbamoyl)-3,4-dihydro-1H-isoquinolin-2-yl]-5-{3-[4-(3-cyano-pyridin-2-yl)-phenoxy]-propyl}-thiazole-4-carboxylic acid], the Ki is 0.05 nM. In the case of `O=C(Nc1nc2ccccc2s1)c1cccc2c1CN(c1nc(C(=O)O)c(CCCOc3ccc(N4CCOCC4)cc3)s1)CC2` [Example 59, 2-[8-(Benzothiazol-2-ylcarbamoyl)-3,4-dihydro-1H-isoquinolin-2-yl]-5-[3-(4-morpholin-4-yl-phenoxy)-propyl]-thiazole-4-carboxylic acid], the Ki came to 0.3 nM. Regarding `N#Cc1cscc1-c1ccc(O)c(Cc2sc(N3CCc4cccc(C(=O)Nc5nc6ccccc6s5)c4C3)nc2C(=O)O)c1` [Example 60, 2-[8-(Benzothiazol-2-ylcarbamoyl)-3,4-dihydro-1H-isoquinolin-2-yl]-5-[5-(4-cyano-thiophen-3-yl)-2-hydroxy-benzyl]-thiazole-4-carboxylic acid], the Ki stood at 176 nM.

The test is the same for the next values; noted with them: with 1% human serum (HS).
Compound `CN(C)CC#Cc1ccc(OCCCc2sc(N3CCc4cccc(C(=O)Nc5nc6ccccc6s5)c4C3)nc2C(=O)O)cn1` [Example 57, 2-(8-(benzo[d]thiazol-2-ylcarbamoyl)-3,4-dihydroisoquinolin-2(1H)-yl)-5-(3-(6-(3-(dimethylamino)prop-1-ynyl)pyridin-3-yloxy)propyl)thiazole-4-carboxylic acid] gave a Ki of 0.07 nM.

The values are drawn from US8232273B2, “Heterocyclic compounds and methods of use” (Genentech, Inc., priority 2008, dated 2012).
